This passage reports glass transition temperature results from the PolyMetriX glass transition set.

Each structure is given as a SMILES string.

Compound `*C(=O)Nc1cccc(NC(=O)c2ccc3[nH]c(-c4cc(-c5nc6cc(*)ccc6[nH]5)cc(N5C(=O)c6ccccc6C5=O)c4)nc3c2)n1` (repeat unit) had a glass transition temperature of 312.00 °C.
Under `*C(=O)Nc1cccc(NC(=O)c2ccc3[nH]c(-c4ccc(-c5nc6cc(*)ccc6[nH]5)cc4)nc3c2)c1` (repeat unit) stands 294.00 °C; under `*C(=O)Nc1cccc(NC(=O)c2ccc3[nH]c(-c4cccc(-c5nc6cc(*)ccc6[nH]5)c4)nc3c2)c1` (repeat unit), 297.50 °C; under `*C(=O)Nc1cccc(NC(=O)c2ccc3c(c2)C(=O)N(c2ccc(Oc4ccc(C5(c6ccc(Oc7ccc(N8C(=O)c9ccc(*)cc9C8=O)cc7)cc6)NC(=O)c6ccccc65)cc4)cc2)C3=O)c1` (repeat unit), 328.00 °C.
`*C(=O)Nc1cccc(NC(=O)c2ccc3c(c2)C(=O)N(c2ccc(Oc4ccc5ccc(Oc6ccc(N7C(=O)c8ccc(*)cc8C7=O)cc6)cc5c4)cc2)C3=O)c1` (repeat unit) gave a glass transition temperature of 286.00 °C.
In the case of `*C(=O)Nc1cccc(NC(=O)c2ccc3c(c2)C(=O)N(c2ccc(Oc4cccc5c(N6C(=O)c7ccc(*)cc7C6=O)cccc45)cc2)C3=O)n1` (repeat unit) it was 293.00 °C.
Under `*C(=O)Nc1cccc(NC(=O)c2ccc3c(c2)C(=O)N(c2ccc(Oc4cccc5c(Oc6ccc(N7C(=O)c8ccc(*)cc8C7=O)cc6)cccc45)cc2)C3=O)c1` (repeat unit) stands 263.00 °C; under `*C(=O)Nc1cccc(Oc2ccc(S(=O)(=O)c3ccc(Oc4cccc(NC(=O)c5ccc(N6C(=O)c7ccc(*)cc7C6=O)cc5)c4)cc3)cc2)c1` (repeat unit), 235.00 °C; under `*C(=O)Nc1cccc2cccc(N3C(=O)CC(N4C(=O)c5ccc(*)cc5C4=O)C3=O)c12` (repeat unit), 193.00 °C.
In the case of `*C(=O)c1ccc(C(=O)c2ccc3c(c2)C(=O)N(c2ccc(C(=O)c4ccc(C(=O)c5ccc(N6C(=O)c7ccc(*)cc7C6=O)cc5)cc4)cc2)C3=O)cc1` (repeat unit), the glass transition temperature was 260.00 °C.
Under `*C(=O)c1ccc2c(c1)C(=O)N(c1ccc(Cc3ccc(C(=O)c4ccc(N5C(=O)c6ccc(*)cc6C5=O)cc4)cc3)cc1)C2=O` (repeat unit) stands 307.00 °C; under `*CCCCC(=O)Oc1ccc(OC(=O)c2ccc3c(c2)C(=O)N(*)C3=O)c(C)c1` (repeat unit), 75.76 °C.
In the case of `*CCCCCCC(=O)Oc1ccc(OC(=O)c2ccc3c(c2)C(=O)N(*)C3=O)c(C)c1` (repeat unit) it was 57.21 °C.
Under `*CCCCCCCCOc1cccc(NC(=O)c2ccc(C(=O)Nc3cccc(O*)c3)cc2)c1` (repeat unit) stands 122.00 °C; under `*CCCCCCCCOc1cccc(NC(=O)c2cccc(C(=O)Nc3cccc(O*)c3)c2)c1` (repeat unit), 117.00 °C; under `*CCCCCCOC(=O)Nc1cccc(P(=O)(c2ccccc2)c2cccc(NC(=O)O*)c2)c1` (repeat unit), 30.00 °C.
Turning to `*CCCCCOc1cccc(NC(=O)c2cccc(C(=O)Nc3cccc(O*)c3)c2)c1` (repeat unit), the glass transition temperature is 131.50 °C.
Under `*CCOCCOc1cccc(NC(=O)c2ccc(C(=O)Nc3cccc(O*)c3)cc2)c1` (repeat unit) stands 140.00 °C; under `*Nc1cccc(NC(=C(C#N)C#N)c2cccc(C(*)=C(C#N)C#N)c2)c1` (repeat unit), 278.00 °C.
In the case of `*Nc1cccc(NC(=O)c2ccc(C(*)=O)cc2)c1` (repeat unit) it was 238.00 °C; in that of `*OC(C)C(=O)OCC(*)=O` (repeat unit), 43.00 °C.
In the case of `*Oc1cc(OC(=O)c2ccc(OCC(C)CC)cc2)c(OC(=O)CCCC(*)=O)cc1OC(=O)c1ccc(OCC(C)CC)cc1` (repeat unit) it was 60.00 °C.
As to `*Oc1cc(OC(=O)c2ccc(OCC)cc2)c(OC(=O)CCCC(*)=O)cc1OC(=O)c1ccc(OCC)cc1` (repeat unit), the glass transition temperature stood at 71.00 °C.
Under `*Oc1cc(OC(=O)c2ccc(OCCCC)cc2)c(OC(=O)C(C)CCC(*)=O)cc1OC(=O)c1ccc(OCCCC)cc1` (repeat unit) stands 55.00 °C; under `*Oc1cc(OC(=O)c2ccc(OCCCC)cc2)c(OC(=O)CCCCCC(*)=O)cc1OC(=O)c1ccc(OCCCC)cc1` (repeat unit), 45.00 °C; under `*Oc1ccc(-c2ccc(OC(=O)Nc3cccc(P(=O)(c4ccccc4)c4cccc(NC(*)=O)c4)c3)cc2)cc1` (repeat unit), 72.00 °C.
In the case of `*Oc1ccc(-c2ccc(OC(=O)OC3C(C)(C)C(OC(*)=O)C3(C)C)cc2)cc1` (repeat unit) it was 165.00 °C; in that of `*Oc1ccc(C(c2ccccc2)(c2ccccc2)c2ccc(OC(=O)OC3C(C)(C)C(OC(*)=O)C3(C)C)cc2)cc1` (repeat unit), 161.00 °C; in that of `*Oc1ccc2ccc(Oc3ccc(C(=O)Nc4cccc(NC(=O)c5ccc(*)cc5)c4)cc3)cc2c1` (repeat unit), 168.00 °C.
With `*Oc1cccc(NC(=O)c2cc(C(=O)Nc3ccc(*)cc3)cc(C(F)(F)C(F)(F)C(F)(F)C(F)(F)C(F)(F)C(F)(F)C(F)(F)C(F)(F)F)c2)c1` (repeat unit), the glass transition temperature was found to be 210.00 °C.
In the case of `*Oc1cccc(NC(=O)c2cc(C(=O)Nc3ccc(*)cc3)cc(C(F)(F)C(F)(F)C(F)(F)C(F)(F)F)c2)c1` (repeat unit) it was 230.00 °C; in that of `*Oc1cccc(NC(=O)c2ccc(C(=O)c3cccc(C(=O)Nc4ccc(*)cc4)c3)cc2)c1` (repeat unit), 237.00 °C.
In the case of `*Oc1cccc(NC(=O)c2ccc(P(=O)(c3ccccc3)c3ccc(C(=O)Nc4cccc(Oc5ccc(P(=O)(c6ccccc6)c6ccc(*)cc6)cc5)c4)cc3)cc2)c1` (repeat unit) it was 235.00 °C.
In the case of `*Oc1cccc(NC(=O)c2cccc(C(=O)Nc3ccc(*)cc3)c2)c1` (repeat unit) it was 240.00 °C; in that of `*Oc1cccc(Oc2cccc(NC(=O)c3cccc(Oc4cccc(Oc5cccc(C(=O)Nc6cccc(*)c6)c5)c4)c3)c2)c1` (repeat unit), 137.50 °C; in that of `*c1ccc(C(=O)Nc2cccc(Oc3ccc(S(=O)(=O)c4ccc(Oc5cccc(NC(=O)c6ccc(N7C(=O)c8ccc(-c9ccc%10c(c9)C(=O)N(*)C%10=O)cc8C7=O)cc6)c5)cc4)cc3)c2)cc1` (repeat unit), 262.00 °C.
`*c1ccc(Oc2cccc(NC(=O)c3cc(C(=O)Nc4cccc(Oc5ccc(-c6nnc(*)o6)cc5)c4)cc(N4C(=O)c5c(Cl)c(Cl)c(Cl)c(Cl)c5C4=O)c3)c2)cc1` (repeat unit) displayed a glass transition temperature of 275.00 °C.
Consider `*c1ccc(Oc2cccc(NC(=O)c3ccc(C(=O)Nc4cccc(Oc5ccc(-c6nnc(*)o6)cc5)c4)c(Oc4ccccc4)c3)c2)cc1` (repeat unit), for which the glass transition temperature is 234.00 °C.
Under `*c1cccc(C(=O)Nc2cccc(S(=O)(=O)c3cccc(NC(=O)c4cccc(N5C(=O)c6ccc(-c7ccc8c(c7)C(=O)N(*)C8=O)cc6C5=O)c4)c3)c2)c1` (repeat unit) stands 247.00 °C.
